# In patent US20200231638A1, “STABILIZED ANTI-MICROBIAL PEPTIDES” (priority 2015, published 2020):
# Bridge positions count the residues as written; N and C are the ends. Square brackets hold non-standard residues; d marks the D form. Peptide text beside a SMILES is read from it. R8 = C=CCCCCCC[C@@](C)(N)C(=O)O; S5 = C=CCCC[C@](C)(N)C(=O)O; Nle = CCCC[C@H](N)C(=O)O
# Columns and labels:
# [1] = test system: human red blood cells; format: cell-based; details: red cells of human, 1 h, 25
# Method in brief: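 Hemolysis expressed as absorbance of released hemoglobin (570 nm) normalized between untreated and 1% Triton-X100 controls, with MHC taken as peptide concentration giving under 1% release. Peptide dilutions were exposed for 1 h at 37° C to a 1% (v/v) suspension of washed human red cells in PBS.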
# [2] = test system: P. aeruginosa; format: cell-based, Pseudomonas aeruginosa
# Method in brief: (§1)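 Broth microdilution; anion-exchange-refined MHB; overnight culture at 37° C, diluted and regrown; inoculum 5×10^5 CFU/ml final; peptides serially diluted in water; 20-24 h, 37° C; MIC = lowest concentration without visible growth.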
# [3] = test system: E. coli; format: cell-based, Escherichia coli
# Method in brief: as §1
# [4] = test system: B. cereus; format: cell-based, Bacillus cereus
# Method in brief: as §1
# [5] = test system: S. aureus; format: cell-based, Staphylococcus aureus
# Method in brief: as §1
MIC P. aeruginosa [2],MIC E. coli [3],MIC B. cereus [4],MIC S. aureus [5],Compound,% Hemolysis at 25 μg/ml [1]
6.2 µg/mL,3.1 µg/mL,3.1 µg/mL,3.1 µg/mL,CCCC[C@H](NC(=O)[C@@H](NC(=O)[C@H](CCC(=O)O)NC(=O)CNC(=O)[C@@H](NC(=O)[C@H](Cc1ccccc1)NC(=O)[C@]1(C)CCCC=CCCCCCC[C@@](C)(NC(=O)[C@H](Cc2c[nH]cn2)NC(=O)[C@H](CC(C)C)NC(=O)[C@H](Cc2ccccc2)NC(=O)[C@H](CCCCN)NC(=O)CNC(=O)[C@@H](NC(=O)CN)[C@@H](C)CC)C(=O)N[C@@H](C)C(=O)N[C@@H](CCCCN)C(=O)N[C@@H](CCCCN)C(=O)N[C@@H](Cc2ccccc2)C(=O)NCC(=O)N[C@@H](CCCCN)C(=O)N1)C(C)C)[C@@H](C)CC)C(=O)N[C@@H](CC(N)=O)C(=O)N[C@@H](CO)C(N)=O [Mag(i + 7)7] (H-GIGKFLH[R8]AKKFGK[S5]FVGEI[Nle]NS-NH2; staple 8-15 (inferred); N-terminus and C-terminus assumed),95.5%
3.1 µg/mL,1.6 µg/mL,3.1 µg/mL,6.2 µg/mL,CCCC[C@H](NC(=O)[C@@H](NC(=O)[C@H](CCC(=O)O)NC(=O)CNC(=O)[C@@H](NC(=O)[C@]1(C)CCCC=CCCCCCC[C@@](C)(NC(=O)[C@H](CO)NC(=O)[C@H](Cc2c[nH]cn2)NC(=O)[C@H](CC(C)C)NC(=O)[C@H](Cc2ccccc2)NC(=O)[C@H](CCCCN)NC(=O)CNC(=O)[C@@H](NC(=O)CN)[C@@H](C)CC)C(=O)N[C@@H](CCCCN)C(=O)N[C@@H](CCCCN)C(=O)N[C@@H](Cc2ccccc2)C(=O)NCC(=O)N[C@@H](CCCCN)C(=O)N[C@@H](C)C(=O)N1)C(C)C)[C@@H](C)CC)C(=O)N[C@@H](CC(N)=O)C(=O)N[C@@H](CO)C(N)=O [Mag(i + 7)8] (H-GIGKFLHS[R8]KKFGKA[S5]VGEI[Nle]NS-NH2; staple 9-16 (inferred); N-terminus and C-terminus assumed),85.4%
3.1 µg/mL,3.1 µg/mL,3.1 µg/mL,3.1 µg/mL,CCCC[C@H](NC(=O)[C@@H](NC(=O)[C@H](CCC(=O)O)NC(=O)CNC(=O)[C@]1(C)CCCC=CCCCCCC[C@@](C)(NC(=O)[C@H](C)NC(=O)[C@H](CO)NC(=O)[C@H](Cc2c[nH]cn2)NC(=O)[C@H](CC(C)C)NC(=O)[C@H](Cc2ccccc2)NC(=O)[C@H](CCCCN)NC(=O)CNC(=O)[C@@H](NC(=O)CN)[C@@H](C)CC)C(=O)N[C@@H](CCCCN)C(=O)N[C@@H](Cc2ccccc2)C(=O)NCC(=O)N[C@@H](CCCCN)C(=O)N[C@@H](C)C(=O)N[C@@H](Cc2ccccc2)C(=O)N1)[C@@H](C)CC)C(=O)N[C@@H](CC(N)=O)C(=O)N[C@@H](CO)C(N)=O [Mag(i + 7)9] (H-GIGKFLHSA[R8]KFGKAF[S5]GEI[Nle]NS-NH2; staple 10-17 (inferred); N-terminus and C-terminus assumed),94.6%
6.2 µg/mL,3.1 µg/mL,6.2 µg/mL,3.1 µg/mL,CCCC[C@H](NC(=O)[C@@H](NC(=O)[C@H](CCC(=O)O)NC(=O)[C@]1(C)CCCC=CCCCCCC[C@@](C)(NC(=O)[C@H](CCCCN)NC(=O)[C@H](C)NC(=O)[C@H](CO)NC(=O)[C@H](Cc2c[nH]cn2)NC(=O)[C@H](CC(C)C)NC(=O)[C@H](Cc2ccccc2)NC(=O)[C@H](CCCCN)NC(=O)CNC(=O)[C@@H](NC(=O)CN)[C@@H](C)CC)C(=O)N[C@@H](Cc2ccccc2)C(=O)NCC(=O)N[C@@H](CCCCN)C(=O)N[C@@H](C)C(=O)N[C@@H](Cc2ccccc2)C(=O)N[C@@H](C(C)C)C(=O)N1)[C@@H](C)CC)C(=O)N[C@@H](CC(N)=O)C(=O)N[C@@H](CO)C(N)=O [Mag(i + 7)10] (H-GIGKFLHSAK[R8]FGKAFV[S5]EI[Nle]NS-NH2; staple 11-18),53.1%
1.6 µg/mL,1.6 µg/mL,3.1 µg/mL,3.1 µg/mL,CCCC[C@H](NC(=O)[C@@H](NC(=O)[C@]1(C)CCCC=CCCCCCC[C@@](C)(NC(=O)[C@H](CCCCN)NC(=O)[C@H](CCCCN)NC(=O)[C@H](C)NC(=O)[C@H](CO)NC(=O)[C@H](Cc2c[nH]cn2)NC(=O)[C@H](CC(C)C)NC(=O)[C@H](Cc2ccccc2)NC(=O)[C@H](CCCCN)NC(=O)CNC(=O)[C@@H](NC(=O)CN)[C@@H](C)CC)C(=O)NCC(=O)N[C@@H](CCCCN)C(=O)N[C@@H](C)C(=O)N[C@@H](Cc2ccccc2)C(=O)N[C@@H](C(C)C)C(=O)NCC(=O)N1)[C@@H](C)CC)C(=O)N[C@@H](CC(N)=O)C(=O)N[C@@H](CO)C(N)=O [Mag(i + 7)11] (H-GIGKFLHSAKK[R8]GKAFVG[S5]I[Nle]NS-NH2; staple 12-19 (inferred); N-terminus and C-terminus assumed),84.8%
3.1 µg/mL,1.6 µg/mL,3.1 µg/mL,12.5 µg/mL,CCCC[C@H](NC(=O)[C@]1(C)CCCC=CCCCCCC[C@@](C)(NC(=O)[C@H](Cc2ccccc2)NC(=O)[C@H](CCCCN)NC(=O)[C@H](CCCCN)NC(=O)[C@H](C)NC(=O)[C@H](CO)NC(=O)[C@H](Cc2c[nH]cn2)NC(=O)[C@H](CC(C)C)NC(=O)[C@H](Cc2ccccc2)NC(=O)[C@H](CCCCN)NC(=O)CNC(=O)[C@@H](NC(=O)CN)[C@@H](C)CC)C(=O)N[C@@H](CCCCN)C(=O)N[C@@H](C)C(=O)N[C@@H](Cc2ccccc2)C(=O)N[C@@H](C(C)C)C(=O)NCC(=O)N[C@@H](CCC(=O)O)C(=O)N1)C(=O)N[C@@H](CC(N)=O)C(=O)N[C@@H](CO)C(N)=O [Mag(i + 7)12] (H-GIGKFLHSAKKF[R8]KAFVGE[S5][Nle]NS-NH2; staple 13-20 (inferred); N-terminus and C-terminus assumed),80.3%
6.2 µg/mL,1.6 µg/mL,3.1 µg/mL,12.5 µg/mL,CC[C@H](C)[C@H](NC(=O)CN)C(=O)NCC(=O)N[C@@H](CCCCN)C(=O)N[C@@H](Cc1ccccc1)C(=O)N[C@@H](CC(C)C)C(=O)N[C@@H](Cc1c[nH]cn1)C(=O)N[C@@H](CO)C(=O)N[C@@H](C)C(=O)N[C@@H](CCCCN)C(=O)N[C@@H](CCCCN)C(=O)N[C@@H](Cc1ccccc1)C(=O)NCC(=O)N[C@]1(C)CCCCCCC=CCCC[C@@](C)(C(=O)N[C@@H](CC(N)=O)C(=O)N[C@@H](CO)C(N)=O)NC(=O)[C@H]([C@@H](C)CC)NC(=O)[C@H](CCC(=O)O)NC(=O)CNC(=O)[C@H](C(C)C)NC(=O)[C@H](Cc2ccccc2)NC(=O)[C@H](C)NC1=O [Mag(i + 7)13] (H-GIGKFLHSAKKFG[R8]AFVGEI[S5]NS-NH2; staple 14-21 (inferred); N-terminus and C-terminus assumed),63.6%
6.2 µg/mL,1.6 µg/mL,1.6 µg/mL,1.6 µg/mL,CCCC[C@@H]1NC(=O)[C@H]([C@@H](C)CC)NC(=O)[C@H](CCC(=O)O)NC(=O)CNC(=O)[C@H](C(C)C)NC(=O)[C@H](Cc2ccccc2)NC(=O)[C@](C)(NC(=O)[C@H](CCCCN)NC(=O)CNC(=O)[C@H](Cc2ccccc2)NC(=O)[C@H](CCCCN)NC(=O)[C@H](CCCCN)NC(=O)[C@H](C)NC(=O)[C@H](CO)NC(=O)[C@H](Cc2c[nH]cn2)NC(=O)[C@H](CC(C)C)NC(=O)[C@H](Cc2ccccc2)NC(=O)[C@H](CCCCN)NC(=O)CNC(=O)[C@@H](NC(=O)CN)[C@@H](C)CC)CCCCCCC=CCCC[C@@](C)(C(=O)N[C@@H](CO)C(N)=O)NC1=O [Mag(i + 7)14] (H-GIGKFLHSAKKFGK[R8]FVGEI[Nle][S5]S-NH2; staple 15-22 (inferred); N-terminus and C-terminus assumed),68.1%
1.6 µg/mL,1.6 µg/mL,3.1 µg/mL,3.1 µg/mL,"CC(C)C[C@H](NC(=O)[C@H](Cc1ccc(O)cc1)NC(=O)[C@H](Cc1c[nH]cn1)NC(=O)[C@@H](NC(=O)[C@H](CC(C)C)NC(=O)[C@]1(C)CCCC=CCCC[C@](C)(NC(=O)[C@H](Cc2c[nH]cn2)NC(=O)[C@H](CCCCN)NC(=O)CNC(=O)[C@@H](NC(=O)[C@H](Cc2c[nH]cn2)NC(=O)[C@H](C)NC(=O)[C@H](CCCCN)NC(=O)[C@H](CCCCN)NC(=O)[C@H](CCCCN)NC(=O)[C@]2(C)CCCC=CCCC[C@](C)(NC(=O)CN)C(=O)NCC(=O)N[C@@H](CO)C(=O)N[C@@H](Cc3ccccc3)C(=O)N2)C(C)C)C(=O)NCC(=O)N[C@@H](CCCCN)C(=O)N[C@@H](C)C(=O)N1)[C@@H](C)O)C(N)=O [Pleu(i + 4)1, 15(A9K)] (H-G[S5]GSF[S5]KKKAHVGKH[S5]GKA[S5]LTHYL-NH2; staple 2-6, 16-20; N-terminus assumed)",16.3%
